# Read-outs that look alike come from different tables or passages of the source.
# What was measured:
# [1] = system: hiPSC-CM (iCell Cardiomyocytes^2); test: RTCA CardioECR assessment (impedance and electrophysiology parameters)
# Procedure: (§1) Culture media change was performed every 2 days.
# After seeding on fibronectin-coated xCELLigence ePlates (Agilent Technologies, Inc. Santa Clara, CA, USA), iCell^2 CM were monitored continuously through impedance electrodes. The following impedance parameters were measured: Cell Index (CI, measure of cell “health” and monolayer integrity), beating rate (BR) and amplitude (CI Amplitude, magnitude of contraction). Electrophysiology-like parameters (Field Potential Duration (FPD), considered as a surrogate for QT in in vivo studies, and Spike Amplitude (SA), depolarization induced by Na^+ channel opening) were measured starting from day 4–6, following the monolayer formation. […] All RTCA CardioECR data were double normalized (DMSO control and the baseline) with no further statistical group comparison for the normalized parameters. The variability of the data within the treatment groups was assessed by standard deviation.
# [2] = ref extensive literature search, cited from earlier work
# [3] = system: hiPSC-CM (iCell Cardiomyocytes^2); test: Intracellular miRNA expression by RT-qPCR in hiPSC-CM pellets after 72-hour treatment; settings: for fold induction at 0.3 µM / fold induction at 1 µM / fold induction at 3 µM / fold induction at 10 µM / fold induction at 0.1 µM / fold induction at 0.01 µM / fold induction at 0.03 µM: Homo sapiens
# Procedure: as §1
# Total RNA was extracted from hiPSC-CM using the miRNeasy 96 Kit (Qiagen, Hilden, Germany) following the manufacturer’s recommendations. After the extraction, RNA purity was assessed by NanoDrop™ 8000 Spectrophotometer (Thermo Fisher Scientific Inc.). 5–10 ng/μL of RNA per sample were reverse transcribed and pre-amplified by using the TaqMan™ Advanced miRNA cDNA Synthesis Kit (Thermo Fisher Scientific Inc.). The synthesized cDNA was used for RT-qPCR with selected TaqMan™ assays (Thermo Fischer Scientific Inc.). RT-qPCR was carried out following the Applied Biosciences TaqMan miRNA expression assay protocol on a ViiA7 instrument (Thermo Fisher Scientific, Inc.). […] Therefore, to maximize the number of drugs and concentrations, explored in the same study, we pooled the triplicates for intracellular profiling of miRNAs. Therefore, no statistical analysis was performed on the data of miRNA profiling in the pellets of hiPSC-CM.
# Following RTCA CardioECR assessment, hiPSC-CM cell pellets were collected, and total RNA was extracted and purified to investigate miRNAs upregulation by RT-qPCR. […] For the initial assessment of intracellular miRNAs in 12 different treatments, encompassing various drug classes, we used a panel of 17 miRNAs, which we selected from the publicly available data focusing mainly on in vitro models and structural cardiotoxicants (Supplementary Table S2).
# [4] = hiPSC-CM, 72-hour treatment, lowest concentration causing at least 20% change from baseline
# [5] = 72 h, read-out: hsa-miR-7-5p fold change
# [6] = 72 h, read-out: hsa-miR-29a-5p fold change
# [7] = 72 h, read-out: hsa-miR-146b-5p fold change
# [8] = 72 h, read-out: hsa-miR-187-3p fold change
# [9] = 72 h, read-out: hsa-miR-126-3p fold change
# [10] = 72 h, read-out: hsa-miR-133b fold change
# [11] = 72 h, read-out: hsa-miR-182-5p fold change
# [12] = 72 h, read-out: hsa-miR-185-3p fold change
# [13] = 72 h, read-out: hsa-miR-208b-3p fold change
# [14] = 72 h, read-out: hsa-miR-365a-5p fold change
# [15] = 72 h, read-out: hsa-miR-96-5p fold change
# [16] = 72 h, read-out: hsa-miR-[…] change
smiles,measurement,setting,value
O=c1[nH]cc(F)c(=O)[nH]1 [5-FluoroUracil],Cell index (CI) MEC,[1]; [4],"ND (ND – not detected, magnitude of change was lower than 20%)"
same,"changes in CI or BR and miRNA expression, in words","[1]; hiPSC-CM, 72 h, RTCA CardioECR and intracellular miRNA compared",did not induce either changes in CI or BR above 20% or miRNA expression above 2-fold change
same,"RTCA, MEC (CI)","[1]; hiPSC-CM, change ≥20%, Table 2","ND (ND – not detected, magnitude of change was lower than 20% for CI/BR)"
same,Cmax total,[2]; Supplementary Table 1,4600 nM
same,Cmax total,[2]; Table 1,4600 nM
same,"intracellular miRNA upregulation in hiPSC-CM, in words",[3],smallest fold change
same,fold induction at 0.3 µM,[3]; [5],0.7
same,fold induction at 1 µM,[3]; [5],0.5
same,fold induction at 3 µM,[3]; [5],0.5
same,fold induction at 10 µM,[3]; [5],0.7
same,fold induction at 0.3 µM,[3]; [6],0.6
same,fold induction at 1 µM,[3]; [6],0.5
same,fold induction at 3 µM,[3]; [6],0.5
same,fold induction at 10 µM,[3]; [6],0.8
same,fold induction at 0.3 µM,[3]; [7],0.6
same,fold induction at 1 µM,[3]; [7],0.3
same,fold induction at 3 µM,[3]; [7],0.3
same,fold induction at 10 µM,[3]; [7],1.6
same,fold induction at 0.3 µM,[3]; [8],1.2
same,fold induction at 1 µM,[3]; [8],1.2
same,fold induction at 3 µM,[3]; [8],1.1
same,fold induction at 10 µM,[3]; [8],0.5
COc1nc(N)nc2c1ncn2[C@@H]1O[C@H](COP(=O)(N[C@@H](C)C(=O)OCC(C)(C)C)Oc2cccc3ccccc23)[C@@H](O)[C@@]1(C)O (stereo partly shown) [BMS-986094],Beating Rate MEC,"[1]; human, 72 h",0.048 µM
same,"RTCA, MEC (BR)","[1]; human, 72 h",0.048 µM
same,Spike Amplitude (SA) MEC,"[1]; human, 72 h",0.16 µM
same,"intracellular miRNA upregulation in hiPSC-CM, in words",[3],lowest upregulation of miRNAs was detected at the highest concentration tested
same,"miRNAs hiPSC-CM pellet, MEC overall",[3],0.1 µM
same,miRNAs upregulated at the MEC overall (hiPSC-CM pellet),[3],"miR-29a-5p, miR-365a-5p"
same,fold induction at 0.1 µM,[3]; [5],1.7
same,fold induction at 0.3 µM,[3]; [5],1
same,fold induction at 1 µM,[3]; [5],1.3
same,fold induction at 3 µM,[3]; [5],1.3
same,fold induction at 0.1 µM,[3]; [6],6.3
same,fold induction at 0.3 µM,[3]; [6],1
same,fold induction at 1 µM,[3]; [6],1.2
same,fold induction at 3 µM,[3]; [6],0.5
same,fold induction at 0.1 µM,[3]; [9],0.3
same,fold induction at 0.3 µM,[3]; [9],2.9
same,fold induction at 1 µM,[3]; [9],2.8
same,fold induction at 3 µM,[3]; [9],5.2
same,fold induction at 0.1 µM,[3]; [10],1.3
same,fold induction at 0.3 µM,[3]; [10],3.3
same,fold induction at 1 µM,[3]; [10],2
same,fold induction at 3 µM,[3]; [10],1.3
same,fold induction at 0.1 µM,[3]; [7],1.8
same,fold induction at 0.3 µM,[3]; [7],4.2
same,fold induction at 1 µM,[3]; [7],11.3
same,fold induction at 3 µM,[3]; [7],1.4
same,fold induction at 0.1 µM,[3]; [11],1
same,fold induction at 0.3 µM,[3]; [11],8.8
same,fold induction at 1 µM,[3]; [11],7.1
same,fold induction at 3 µM,[3]; [11],5.5
same,fold induction at 0.3 µM,[3]; [12],0.5
same,fold induction at 1 µM,[3]; [12],3.3
same,fold induction at 3 µM,[3]; [12],8.2
same,fold induction at 0.1 µM,[3]; [8],0.5
same,fold induction at 0.3 µM,[3]; [8],2.7
same,fold induction at 1 µM,[3]; [8],8.8
same,fold induction at 0.1 µM,[3]; [13],1.7
same,fold induction at 0.3 µM,[3]; [13],1.3
same,fold induction at 1 µM,[3]; [13],1.1
same,fold induction at 3 µM,[3]; [13],1
same,fold induction at 0.1 µM,[3]; [14],2.2
same,fold induction at 0.3 µM,[3]; [14],0.7
same,fold induction at 1 µM,[3]; [14],1.3
same,fold induction at 3 µM,[3]; [14],0.7
CC(C)C[C@H](NC(=O)[C@H](Cc1ccccc1)NC(=O)c1cnccn1)B(O)O [Bortezomib],"RTCA, MEC (CI)","[1]; hiPSC-CM, change ≥20%, Table 2",0.03 µM
same,Beating Rate MEC,"[1]; human, 72 h",0.1 µM
same,Beating rate (BR) MEC,"[1]; human, 72 h",0.1 µM
same,Contractility Amplitude MEC,"[1]; human, 72 h",0.1 µM
same,Field Potential Duration MEC,"[1]; human, 72 h",0.1 µM
same,Spike Amplitude (SA) MEC,"[1]; human, 72 h",0.1 µM
same,Cmax total,[2]; Supplementary Table 1,140 to 2800 nM
same,Cmax total,[2]; Table 1,140 to 2800 nM
same,"miRNAs hiPSC-CM pellet, MEC overall",[3],0.01 µM
same,miRNAs upregulated at the MEC overall (hiPSC-CM pellet),[3],"miR-126-3p, miR-182-5p, miR-185-3p, miR-187-3p, miR-7-5p"
CCN[C@@H](C)Cc1cccc(C(F)(F)F)c1 [Dexfenfluramine],Spike Amplitude (SA) MEC,"[1]; hiPSC-CM, 72-hour treatment, at least 40% change",0.01 µM
same,Beating rate (BR) MEC,[1]; [4],"ND (ND – not detected, magnitude of change was lower than 20%)"
same,Cell index (CI) MEC,[1]; [4],"ND (ND – not detected, magnitude of change was lower than 20%)"
same,"RTCA, MEC (BR)","[1]; hiPSC-CM, change ≥20%, Table 2","ND (ND – not detected, magnitude of change was lower than 20% for CI/BR)"
same,"RTCA, MEC (CI)","[1]; hiPSC-CM, change ≥20%, Table 2","ND (ND – not detected, magnitude of change was lower than 20% for CI/BR)"
same,fold induction at 0.01 µM,[3]; [5],0.8
same,fold induction at 0.03 µM,[3]; [5],0.8
same,fold induction at 0.1 µM,[3]; [5],0.7
same,fold induction at 0.3 µM,[3]; [5],1
same,fold induction at 0.01 µM,[3]; [6],1.8
same,fold induction at 0.03 µM,[3]; [6],0.8
same,fold induction at 0.3 µM,[3]; [6],0.7
same,fold induction at 0.01 µM,[3]; [15],1.8
same,fold induction at 0.03 µM,[3]; [15],0.8
same,fold induction at 0.3 µM,[3]; [15],0.7
same,fold induction at 0.01 µM,[3]; [9],1.3
same,fold induction at 0.03 µM,[3]; [9],2.3
same,fold induction at 0.1 µM,[3]; [9],0.6
same,fold induction at 0.3 µM,[3]; [9],0.5
same,fold induction at 0.01 µM,[3]; [10],4
same,fold induction at 0.03 µM,[3]; [10],0.7
same,fold induction at 0.1 µM,[3]; [10],0.5
same,fold induction at 0.3 µM,[3]; [10],0.1
same,fold induction at 0.01 µM,[3]; [7],0.5
same,fold induction at 0.03 µM,[3]; [7],0.7
same,fold induction at 0.1 µM,[3]; [7],0.4
same,fold induction at 0.3 µM,[3]; [7],0.7
same,fold induction at 0.01 µM,[3]; [11],0.01
same,fold induction at 0.03 µM,[3]; [11],0.004
same,fold induction at 0.1 µM,[3]; [11],0.003
same,fold induction at 0.3 µM,[3]; [11],0.01
same,fold induction at 0.01 µM,[3]; [12],2.1
same,fold induction at 0.03 µM,[3]; [12],1.2
same,fold induction at 0.1 µM,[3]; [12],1
same,fold induction at 0.3 µM,[3]; [12],0.7
same,fold induction at 0.01 µM,[3]; [8],0.6
same,fold induction at 0.03 µM,[3]; [8],0.7
same,fold induction at 0.1 µM,[3]; [8],0.7
same,fold induction at 0.3 µM,[3]; [8],0.6
same,fold induction at 0.01 µM,[3]; [13],1.1
same,fold induction at 0.03 µM,[3]; [13],1
same,fold induction at 0.1 µM,[3]; [13],0.8
same,fold induction at 0.3 µM,[3]; [13],0.9
same,fold induction at 0.03 µM,[3]; [14],2.6
same,fold induction at 0.3 µM,[3]; [14],8.9
same,fold induction at 0.01 µM,[3]; [16],1.2
same,fold induction at 0.03 µM,[3]; [16],0.9
same,fold induction at 0.1 µM,[3]; [16],0.8
same,fold induction at 0.3 µM,[3]; [16],0.8
same,miRNAs upregulated at the MEC overall (hiPSC-CM pellet),"[3]; fold change ≥2, 72 h","miR-133b, miR-185-3p"
same,"miRNAs hiPSC-CM pellet, MEC overall","[3]; lowest concentration tested which produced miRNA upregulation (fold change ≥2), 72 h",0.01 µM
